Data: ChEMBL document CHEMBL4311999, “3-Hydrazinoisatin-based benzenesulfonamides as novel carbonic anhydrase inhibitors endowed with anticancer activity: Synthesis, in vitro biological evaluation and in silico insights” (Eur J Med Chem, 2019)

Key:
Carbonic anhydrase 9 = Carbonic anhydrase 9 (Homo sapiens, UniProt Q16790); experiment: Inhibition of recombinant human carbonic anhydrase 9 preincubated for 15 mins by phenol red dye based stopped flow CO2 hydration assay
Carbonic anhydrase 1 = Carbonic anhydrase 1 (Homo sapiens, UniProt P00915); experiment: Inhibition of recombinant human carbonic anhydrase 1 preincubated for 15 mins by phenol red dye based stopped flow CO2 hydration assay
Carbonic anhydrase 12 = Carbonic anhydrase 12 (Homo sapiens, UniProt O43570); experiment: Inhibition of recombinant human carbonic anhydrase 12 preincubated for 15 mins by phenol red dye based stopped flow CO2 hydration assay
Carbonic anhydrase 2 = Carbonic anhydrase 2 (Homo sapiens, UniProt P00918); experiment: Inhibition of recombinant human carbonic anhydrase 2 preincubated for 15 mins by phenol red dye based stopped flow CO2 hydration assay

Chain of Carbonic anhydrase 1 (P00915 whole entry): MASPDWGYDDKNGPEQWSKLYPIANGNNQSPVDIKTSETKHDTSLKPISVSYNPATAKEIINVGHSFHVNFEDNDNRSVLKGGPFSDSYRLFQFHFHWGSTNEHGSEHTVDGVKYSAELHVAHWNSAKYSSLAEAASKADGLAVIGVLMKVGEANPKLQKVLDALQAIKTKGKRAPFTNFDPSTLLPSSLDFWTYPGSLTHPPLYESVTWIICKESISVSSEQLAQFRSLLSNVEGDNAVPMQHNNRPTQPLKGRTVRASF
Chain of Carbonic anhydrase 12 (O43570 whole entry): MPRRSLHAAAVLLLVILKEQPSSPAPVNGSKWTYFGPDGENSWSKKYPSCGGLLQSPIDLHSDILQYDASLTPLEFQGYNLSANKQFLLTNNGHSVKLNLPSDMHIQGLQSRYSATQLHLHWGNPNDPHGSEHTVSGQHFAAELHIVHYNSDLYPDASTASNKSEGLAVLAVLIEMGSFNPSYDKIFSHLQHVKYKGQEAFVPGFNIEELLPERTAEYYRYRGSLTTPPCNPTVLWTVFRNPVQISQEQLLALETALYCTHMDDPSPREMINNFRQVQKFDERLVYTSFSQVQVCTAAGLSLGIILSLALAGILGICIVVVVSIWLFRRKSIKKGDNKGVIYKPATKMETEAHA

SMILES | Ki (Carbonic anhydrase 9) | Ki (Carbonic anhydrase 1) | Ki (Carbonic anhydrase 12) | Ki (Carbonic anhydrase 2)
CN1C(=O)/C(=N\Nc2ccc(S(N)(=O)=O)cc2)c2cc(Br)ccc21 | 40.1 nM | – | – | –
NS(=O)(=O)c1ccc(N/N=C2\C(=O)Nc3ccc(Cl)cc32)cc1 [GW280670X] | 8.3 nM | 1810 nM | 11.9 nM | 35.9 nM
NS(=O)(=O)c1ccc(N/N=C2\C(=O)Nc3ccc(Br)cc32)cc1 | 24.8 nM | 3710 nM | 65.9 nM | 95.6 nM
CCN1C(=O)/C(=N\Nc2ccc(S(N)(=O)=O)cc2)c2cc(Br)ccc21 | 42 nM | – | – | –
CCCN1C(=O)/C(=N\Nc2ccc(S(N)(=O)=O)cc2)c2ccccc21 | 28.6 nM | – | – | –
CCN1C(=O)/C(=N\Nc2ccc(S(N)(=O)=O)cc2)c2ccccc21 | 25.8 nM | – | – | –
CCOC(=O)CN1C(=O)/C(=N\Nc2ccc(S(N)(=O)=O)cc2)c2ccccc21 | 15.9 nM | – | – | –
CCCN1C(=O)/C(=N\Nc2ccc(S(N)(=O)=O)cc2)c2cc(Cl)ccc21 | 13.1 nM | – | – | –
NS(=O)(=O)c1ccc(N/N=C2\C(=O)Nc3ccccc32)cc1 | 15.5 nM | 467 nM | 30.1 nM | 63.3 nM
CCN1C(=O)/C(=N\Nc2ccc(S(N)(=O)=O)cc2)c2cc(Cl)ccc21 | 8.4 nM | – | – | –
